# Patent US9682067B2, “Methods of improving cognitive function” (priority 2010, dated 2017)
# Where two headings read alike, the source gives them in different places.
# Experiments:
# GluR6 receptor = assay: Complex olfactory discrimination learning in 4-arm maze after injection into the brain ventricles; format: in vivo; settings: rats; 500 nmol into the brain ventricles, evaluation 10 min after daily injection; saline injected rats 8 days; p<0.001
# Procedure: Olfactory discrimination protocol was performed in a 4-arm radial maze, with odors that are frequently used in the food industry (FIG. 1A). FIG. 1A is a schematic description of the 4-arm maze: an electronic ‘start’ command opens randomly two out of eight valves (V), releasing a positive-cue odor (P) into one of the arms and a negative-cue odor (N) into another. Eight seconds later, the two corresponding guillotine doors (D) are lifted to allow the rat to enter the selected arms. Upon reaching the far end of an arm (90 cm long), the rat body interrupts an infrared beam (I, arrow) and a drop of drinking water is released from a water hose (W) into a small drinking well (for a trained rat—only if the arm contains the positive-cue odor, for pseudo-trained rat—randomly). A trial ends when the rat interrupts a beam, or in 10 seconds, if no beam was interrupted. A fan is operated for 15 seconds between trials, to remove odors.
# Olfactory training included 20 trials per day. […] A pseudo-trained group of age-matched rats was exposed to the same protocol of training, but with random water rewarding. An age-matched naive group of rats was water-deprived, without exposure to training. A day following memorization of a pair of odors by the rats in the trained group, both trained and pseudo trained groups were trained with a new pair of odors. […]
# kainate receptors = assay: Post-burst AHP amplitude in pyramidal neurons of brain slices after brief kainate exposure; format: cell-based, rat; settings: for averaged AHP amplitude: after ten minutes long exposure to kainate, p<0.05
# Procedure: brain slices of the pirofm cortex hippocampus are prepared and recordings were obtained from pyramidal neurons, with sharp electrodes for current clamp studies of AHP and neuronal adaptation. Data was collected from at least 20 neurons taken for 6 rats or more in each experimental group.
# for after-hyper-polarization (AHP) measurement, neurons were depolarized in current clamp mode to Vm of −60 mV with DC current injection, and 100 ms long depolarizing current steps were applied with intensity sufficient to evoke trains of 6 action potentials. AHP amplitude was measured from baseline to the peak of the hyperpolarizing voltage deflection that follows the spike train (FIGS. 2A1 and 2A2). The AHP value was determined from the averaged amplitude in 4-5 consecutive traces, evoked at intervals of 10 sec. FIGS. 2A1 and 2A2 show the same trace on different time scales. Neurons were held at membrane potential of −60 mV and post-burst AHP was generated by 100 ms depolarizing current step injection via the recording electrode, with intensity sufficient to generate a train of 6 action potentials.
# These experiments included a brief, ten minutes long, exposure to kainate. […] This decrease outlasted while kainate was present and was always apparent for the total length to kainate exposure (FIG. 8A).
# The post burst AHP in neurons from trained rats was not affected by exposure to kainate. The averaged AHP in kainate induced, trained neurons was 6.63±2.4 (n=7).
# GluR6 = format: cell-based, mice; settings: 1 sec depolarizing pulse, Ithx2, versus control
# Procedure: For neuronal adaptation measurements, prolonged (1 sec) depolarizing current steps are applied to the neurons via the recording electrode at Vrest, with stimulus intensity of twice IThreshold (FIG. 2B). The firing frequency was measured between each of two spikes in the train, and values were normalized to the initial frequency at which the first two spikes are generated. FIG. 2B is a graph depicting an example for neuronal firing adaptation in layer II pyramidal cell.
# FIG. 10B is a bar graph depicting the number of spikes following kainate application in GluR6+/+ and GluR6−/− neurons, as opposed to control, (n) depicts the number of neurons.
Structure (SMILES),averaged number of training days required for learning completion (GluR6 receptor),"averaged AHP amplitude (kainate receptors; neurons from naive animals, n=16)","averaged AHP amplitude (kainate receptors; neurons from pseudo trained rats, n=7)","effect on post burst AHP (kainate receptors; neurons from trained rats, exposure to kainate)","averaged AHP (kainate receptors; neurons from trained rats, kainate induced, n=7)",number of action potentials (spikes) following kainate application (GluR6; neurons from GluR6 knockout (GluR6-/-) mice),number of action potentials (spikes) following kainate application (GluR6; neurons of wild type (GluR6+/+) mice)
"Cc1onc(O)c1CCC(N)C(=O)O (racemic) [homo-AMPA, (RS)-2-amino-4-(3-hydroxy-5-methylisoxazol-4-yl)butyric acid]",less than five,–,–,–,–,–,–
"C=C(C)[C@H]1CN[C@H](C(=O)O)[C@H]1CC(=O)O [kainate, kainic acid]",–,6.0±2.5,6.63 ± 2.4,not affected,6.63±2.4,no effect,doubles
